Measured values from patent publication US10781200B2, “Therapeutic inhibitory compounds” (Attune Pharmaceuticals, Inc., priority 2016, dated 2020).

Test: Pharmacokinetic study, oral exposure in rats
Format: in vivo
Details: male Sprague-Dawley rats, single oral dose 10 mg/kg, plasma
Description: Pharmacokinetic studies of select compounds were performed to assess the pharmacokinetic properties. Male Sprague-Dawley rats were administered a single oral dose of the test compound at 10 mg/kg (dose concentration: 2 mg/mL, dose volume: 5 ml/kg) via oral gavage. Blood samples were collected via jugular vein at pre-dose, post-dose 5 min, 15 min, 30 min, 1 h, 2 h, 4 h, 6 h, 8 h, 10 h and 24 h, and centrifuged (8000 rpm for 6 minutes at 2-8° C.). The resulting plasma fractions were analyzed by LC/MS/MS to determine the concentration of the test compound.

Row | Compound | AUC
1 | Cc1cc(N)nc(C)c1CNC(=O)c1cn(Cc2ccc3ncc(Cl)cc3c2)c2cnc(C#N)cc12 [Example 134, N-((6-amino-2,4-dimethylpyridin-3-yl)methyl)-1-((3-chloroquinolin-6-yl)methyl)-5-cyano-1H-pyrrolo[2,3-c]pyridine-3-carboxamide] | BLQ
2 | Cc1cc(N)nc(C)c1CNC(=O)c1c[nH]c(Cc2ccc3ncc(Cl)cc3c2)n1 [Example 5, N-((6-amino-2,4-dimethylpyridin-3-yl)methyl)-2-((3-chloroquinolin-6-yl)methyl)-1H-imidazole-5-carboxamide] | BLQ
3 | Cc1cc(N)nc(C)c1CNC(=O)c1cn(Cc2ccc3ncc(Cl)cc3c2)c2ccncc12 [Example 35, N-((6-amino-2,4-dimethylpyridin-3-yl)methyl)-1-((3-chloroquinolin-6-yl)methyl)-1H-pyrrolo[3,2-c]pyridine-3-carboxamide] | BLQ
